The values that follow come from the METLIN SMRT retention time set (Domingo-Almenara et al. 2019).

The data set in a line: gradient 5% acetonitrile 3 min, to 50% in 2 min, to 85% in 15 min, held 3 min, 100 µL/min. Particulars: column: Zorbax Extend-C18 2.1 x 50 mm; eluents: water / acetonitrile, 0.1% formic acid. Put shortly:
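Data were gathered over 3 months by HPLC coupled to a quadrupole time-of-flight mass spectrometer, operated in positive and negative ionization mode. Mixtures of ~100 pure standards ran on a Zorbax Extend-C18 column (2.1 × 50 mm, 1.8 μm) at 100 μL/min, with water and acetonitrile each containing 0.1% formic acid and dead and dwell volumes of 40 μL and 900 μL. Retention time was read from adduct peaks picked by computer and checked manually.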
Turning to `CN(C)C(=O)OCC1COc2ccccc2O1` (centres undefined), the RP-LC retention time is 883 s.
In the case of `CCc1cccc(N2C(=O)CN(S(=O)(=O)CC)CC2(C)C(=O)NCc2ccccc2)c1` (centres undefined), the RP-LC retention time was determined as 856 s.
The same measure for `CCCC1c2nccn2CCCN1C(=O)c1cccn1C` (centres undefined): 599 s; for `CN(C)CCNC(=O)c1nc2ccccn2c1-c1ccc(Cl)cc1`: 626 s; for `CCc1cc(-c2csc(S(=O)(=O)Nc3ccc(C)cc3Br)c2)on1`: 1050 s.
Next, `COc1ccc(N2CCN(c3cc(-c4nc(-c5ccccc5)no4)c4ccccc4n3)CC2)cc1`: 586 s.
`O=S(=O)(c1ccc(Cl)c(-c2nnc(-c3ccccc3)o2)c1)N(CCO)CCO`: the RP-LC retention time came out at 739 s.
The same measure for `COc1ccc(NC(=O)c2nc(N3CCCC3)c3c(C)cc(C)nc3n2)c(C)c1`: 666 s.
Next, `Cc1ccc(S(=O)(=O)c2ccc(C(=O)N3CCN(c4ccccn4)CC3)cn2)cc1C`: 658 s; `COc1ccccc1CNC(=O)Cn1nc2c(N3CCSCC3)nccn2c1=O`: 767 s; `Cc1ccc(/C=C2\CCOC2=O)cc1`: 916 s.
The same measure for `COc1ccc(-c2cc(C(=O)N(C)C)c(C)n2C)cc1`: 808 s; for `Cc1cc(C)n2c(Nc3ccccc3C)c(-c3ccccc3)nc2n1`: 728 s.
For the compound `O=C(CN1CCSc2ccccc21)NCCCN1CCN(Cc2ccccc2)CC1`, the RP-LC retention time is 666 s.
For `Cc1nn(C(C)C(=O)N2CCCCCC2)c(=O)c2c(-n3cccc3)n(-c3ccccc3)nc12` (centres undefined), the RP-LC retention time came out at 1040 s.
In turn, `CN1C(=O)CCCCC1C(=O)NCc1cccs1` (centres undefined) came in with an RP-LC retention time of 637 s.
Turning to `CCOc1ccc(Nc2nc(-c3c(C)nc4ccccn34)cs2)cc1`, the RP-LC retention time was determined as 722 s.
The same measure for `Cc1ccc(F)c(NS(=O)(=O)c2ccc3c(c2)C(=O)N(C)c2ncccc2O3)c1`: 924 s.
The same measure for `CCSc1nnc(NC(=O)Cc2csc(NC(=O)c3ccc4c(c3)OCO4)n2)s1`: 804 s; for `CCCCOc1ccc(S(=O)(=O)Nc2ccc(-c3cn4ccc(C)nc4n3)cc2)cc1`: 776 s.
Next, `CCN1CCN(c2ccc(N3CCCC(C(=O)N4CCN(c5ccccn5)CC4)C3)nn2)CC1` (centres undefined): 574 s; `CC1CCCCN1CCNC(=O)Cn1c2ccccc2c2cnn(C)c(=O)c21` (centres undefined): 620 s; `CCOc1cccc(CNC(=O)C2CCc3nc(N4CCOCC4)ncc3C2)c1` (centres undefined): 743 s.
`CC(C)n1c(SCC(=O)N2CCCC2)nnc1-c1ccc2c(c1)OCCCO2` gave an RP-LC retention time of 671 s.
The same measure for `COc1ccc(-c2nc(NCc3cccnc3)c3ccccc3n2)cc1`: 574 s; for `O=S(=O)(c1cc(-c2nnc(C3CCC3)o2)co1)N1CCN(c2ccccn2)CC1`: 671 s.
`COc1ccc(Cl)cc1S(=O)(=O)N1CCCN(c2ccc(=O)n(-c3ccccc3)n2)CC1` had an RP-LC retention time of 906 s.
Next, `CC1CCCN(c2ncc(S(=O)(=O)c3ccc(C(C)C)cc3)c(N)n2)C1` (centres undefined): 807 s; `COc1ccccc1NC(=O)c1cc(C(C)C)n2nccc2n1`: 1180 s.
The same measure for `Cc1ccc2[nH]c(=O)c(CCC(=O)NCc3cccnc3)cc2c1`: 584 s.
Next, `COc1ccc(NC(=O)C2CCC(=O)N2S(=O)(=O)c2ccc(C)c(C)c2)cc1Cl` (centres undefined): 956 s; `CCc1nc2cc3c(cc2n1CC(=O)Nc1ccc(Br)cc1)OCCO3`: 707 s; `O=C(c1cc(-c2cccs2)n(C2CCS(=O)(=O)C2)n1)N1CCN(c2ccccn2)CC1` (centres undefined): 602 s.
`CCOC(=O)c1cccc(NS(=O)(=O)c2cc(-c3cc(C)[nH]n3)ccc2C)c1` came in with an RP-LC retention time of 866 s.
In turn, `COc1ccc(C2CCN(S(=O)(=O)c3cccc(C(F)(F)F)c3)C2)cc1` (centres undefined) came in with an RP-LC retention time of 1060 s.
Next, `Cc1ccc(CNC(=O)C2(C)CCC(=O)N2CCc2c[nH]c3ccccc23)cc1` (centres undefined): 805 s; `CCNC(=O)N1CCOc2cc(C)ccc21`: 768 s.
The same measure for `COC(=O)c1ccc(Nc2nc(C)nc3c2CCC3)cc1`: 615 s; for `COc1ccc(OC)c(NC(=O)N2CCN(Cc3cn(C)c4ccccc34)CC2)c1`: 664 s.
Next, `COc1ccccc1CNC(=O)Cn1cccc1-c1nnc(-c2ccccc2)o1`: 920 s; `CCn1c(C(=O)N2CCN(c3ccccn3)CC2)cc2sccc21`: 636 s.
`COc1ccc(C(C)NC(=O)C2CCCN(c3nccnc3Sc3ccc(C)cc3)C2)cc1` (centres undefined): the RP-LC retention time was determined as 1090 s.
In the case of `CCCCNC(=O)CCC(=O)Nc1ccc2nc(N3CCN(C)CC3)cc(C)c2c1`, the RP-LC retention time turned out to be 520 s.
The same measure for `CN(C(=O)C1CCCN(c2ncnc3c2nc2n3CCCCC2)C1)c1ccccc1` (centres undefined): 766 s; for `Cn1cc(C(=O)NCc2ccc(Cl)cc2)c(S(=O)(=O)N2CCSCC2)n1`: 909 s.
The same measure for `CCS(=O)(=O)c1nc2ccc(NS(=O)(=O)c3c(C)c(C)cc(C)c3C)cc2s1`: 1020 s; for `O=C(Cn1ncc2c3ccccc3n(Cc3ccccc3)c2c1=O)N1CCN(c2ccccn2)CC1`: 693 s.
Next, `O=S1(=O)C[C@H](N2CCN(c3ccccn3)CC2)[C@@H](S(=O)(=O)c2ccc(F)cc2)C1`: 1040 s; `Cc1ccc(-c2ccc(=O)n(CCCC(=O)Nc3ccc(-c4ccc(=O)[nH]n4)cc3)n2)cc1`: 678 s; `COCCn1cnc2c(-c3ccccc3)cn(CC(=O)NCc3ccc4c(c3)OCO4)c2c1=O`: 828 s.
With `CCc1cc(Br)ccc1NC(=O)C1CCCN(c2nc3ccccc3nc2OC)C1` (centres undefined), the RP-LC retention time worked out at 1300 s.
Next, `O=C(Nc1cccc(Cl)c1)c1cn(CC2CCCO2)cc2c(=O)n(-c3ccccc3)nc1-2` (centres undefined): 1100 s.
Next, `CCn1c(=O)c(Nc2ccc(C)c(Cl)c2)nc2ccncc21`: 649 s; `O=C(Nc1ccccc1)N1CCC(OCc2ccccc2)C1` (centres undefined): 837 s; `O=C(CC1=CCCCC1)N1CCC(C2CCNC2)CC1` (centres undefined): 602 s.
Next, `CC(C)NC(=O)c1ccc(OCC2CCCN(C(=O)c3ccc(C#N)cc3)C2)cc1` (centres undefined): 800 s.
`Cc1cc(C)n(-c2nc(C)c(C)c(=O)n2CC(=O)N2CCCc3ccccc32)n1` showed an RP-LC retention time of 907 s.
Next, `COc1ccc(C(=O)N2CCC(COc3ccc(C(=O)NC(C)C)cc3)CC2)cc1`: 820 s; `CC(=O)Nc1cccc(C2OC(c3cc(Br)ccc3OC(C)=O)=NN2C(C)=O)c1` (centres undefined): 828 s.
Next, `C[C@H]1CN(C(=O)Nc2cccc(Cl)c2)C[C@@H]1c1nc(-c2cccnc2)no1`: 849 s; `CN1CCN(C(=O)CCCN2C(=O)CCn3nc(-c4cn(C)c5ccccc45)cc32)CC1`: 571 s; `COc1ccc(OC)c(NS(=O)(=O)c2cc(-c3nc(C)cs3)n(CC(=O)N3CCCC3)c2)c1`: 903 s.
The same measure for `O=C(CCC1CCCN(c2cc(NC3CC3)ncn2)C1)NCc1ccccn1` (centres undefined): 558 s; for `O=C(NCCc1cccs1)C1CCN(S(=O)(=O)c2ccc(-c3noc(C4CC4)n3)cc2)CC1`: 946 s; for `Cn1c(=O)c2c(C(=O)N3CCN(c4cccc(C(F)(F)F)c4)CC3)cc(=O)n(C)c2n(C)c1=O`: 943 s.
In the case of `O=C(NCCc1c[nH]c2ccccc12)c1cc(=O)[nH]c2ccccc12`, the RP-LC retention time came to 682 s.
Next, `CCN1C(=O)c2cc(S(=O)(=O)Nc3cc(F)ccc3C)ccc2Oc2cccnc21`: 1030 s.
The same measure for `CCCCOCCCNCc1ccc2c(c1)n(C)c(=O)n2C`: 593 s.
The same measure for `CCN1CCN(CCNC(=O)c2ccc(CS(=O)c3cccc(Cl)c3)o2)CC1` (centres undefined): 576 s; for `Cc1c(CNCc2ccccn2)c(C(=O)O)c(C)n1Cc1ccc(F)cc1`: 670 s.
`COc1ccc(N2CCN(C(=O)c3csc(C(=O)NC4CC4)n3)CC2)cc1` displayed an RP-LC retention time of 700 s.
In turn, `Cc1ccc(-c2ccc(=O)n(Cc3nc(-c4ccc(F)cc4)no3)n2)cc1` showed an RP-LC retention time of 1090 s.
The same measure for `O=S(=O)(c1ccc(-c2nnc(C3CC3)o2)o1)N1CCN(c2ccccn2)CC1`: 632 s; for `CCOC(=O)c1cc(S(=O)(=O)N2CCCC2C(=O)N2CCc3ccccc32)cn1C` (centres undefined): 696 s; for `O=C(Nc1ccc(F)cc1)c1nnc(C(=O)N2CCC(C(=O)NCc3ccccn3)CC2)s1`: 909 s.
Next, `O=C(C1CCN(c2ccc(-n3cccn3)nn2)CC1)N1CCN(c2ncccn2)CC1`: 605 s.
Next, `O=C(c1cc2ccccc2[nH]1)N1CCC2(CC1)N=C(c1ccc(Br)cc1)NO2`: 959 s.
`Cc1cc(NC(=O)c2c(F)cccc2Cl)n(-c2nc(-c3ccccc3)cs2)n1`: the RP-LC retention time turned out to be 1330 s.
The same measure for `CCN(CCCNC(=O)CCc1nnc2ccc(-c3ccccc3)nn12)c1ccccc1`: 654 s.
